Assays:
CMA network = experiment: Comparative transcriptomic analysis / qPCR of CMA network; format: cell-based, mouse; conditions: compared to AR7
Procedure: mRNA-qPCR: RNA was extracted from individual retinas. Total RNA from retinas was extracted using TRIzol Reagent (Invitrogen), and reverse transcription performed using the High-Capacity cDNA Reverse Transcription Kit (Applied Biosystems) according to the manufacturer's instructions. Quantitative real-time PCR was performed in a Light Cycler 480 Instrument (Roche) with Taqman Universal PCR Master Mix using Taqman assays (Life Tech-nologies). The following probes were used: Mm01184405_m1 (rhodopsin), F-5′-CTTAGCTTCTGGGATGC CCC-3′, R-5′-[…]-3′ (lamp2a) F-5′-AA GGACTCCTA TAGTGGG TGACGA-3′, R-5′-[…]-3′ (mouse β-actin).
Microarray: Total RNA of the treated cells was extracted using TRIzol (Invitrogen) and purified with RNeasy chromatography (Qiagen). Cy3-labeled RNA (0.6 μg) from each condition were hybridized to Agilent Mouse 8×60K. Data were processed using the oligo package and normalized using Robust Multiarray Average (RMA) method. Gene set was filtered to remove genes without Entrez or GO annotation (21912 genes out of 55682) and genes with an […]. The full microarray Gomez-Sintes et al. raw data will be deposited in GEO upon acceptance of the manuscript. Pathway analysis was performed using the STRING database ([…]).
CMA index was calculated using data set from Ly (J. Proteome Research (2016) 15: 1350-1359), Gao (2020), and Lane (2020). Briefly, each element of the CMA network was attributed a weight. As LAMP-2A is the rate limiting component of CMA, it was given a weight of 2. Every other element received a weight of 1. Then, every element was attributed direction score that is +1 or −1 based on the known effect of a given element on CMA activity. The score was then calculated as the weighted/directed average of expression counts of every element of the CMA network.

NIH3T3 cells = experiment: CMA activity, KFERQ-PS-Dendra reporter in NIH3T3 cells; format: cell-based, mouse; conditions: for CMA activation after washout: 12 h after washing out the compounds from the media; for CMA activating effect upon knock-down of NCoR1: NCoR1 KD NIH3T3, 20 μM, 24 h; for CMA activation: increasing concentrations, 12 or 24 h, compared with AR7
Procedure: CMA activity: Cells were transduced with lentivirus carrying the KFERQ-PS-Dendra reporter as before. Cells were photoactivated by exposure to a 3.5 mA (current constant) light emitting diode (LED: Norlux, 405 nm) for 3 min and then plated in glass-bottom 96 well plates. At the desired times, cells were fixed with 4% PFA and imaged using high-content microscopy (Operetta system, Perkin Elmer). Images were quantified using the manufacturer's software in a minimum of 1,200 cells in 9 independent fields per well. […] This was particularly important in the case of primary human cells where efficiency of transduction was approximately 65%. To avoid con-funding effects for drug-induced changes in cell volume or adherence to the plate that could bring a fraction of the cells per field outside of focus, we set a threshold to count only cells that have at least 1/10 of the average number of […] detected in the untreated wells for each cell type (3-4 puncta/cell in the case of NIH3T3 and N2a cells and 5 puncta/cell in primary human fibroblasts). To measure CMA in the tissues from KFERQ-Dendra mice, the organs of interest were fixed for 12 h at 4° C. in picric acid fixation buffer (2% formaldehyde, 0.2% picric acid in PBS, pH7.0) and then washed with 70% ethanol, followed by two washes in PBS. Tissues were immersed in 30% sucrose and then embedded in OCT for sectioning in a cryostat (Leica CM3050 S). After airdrying for 30 min, sections were stored at −20° C. until use. Slices were mounted in DAPI-Fluoromount-G to highlight the cell nucleus and allow quantification of puncta per cell. Images were acquired in x-y-z planes with an Axiovert 200 fluorescence microscope (Carl Zeiss Ltd) with a ×63 objective and 1.4 numerical aperture, mounted with an ApoTome.2 slider or with a Confocal microscope (TCS SP5; Leica) using an HCX Plan Apo CS×63.0 1.40 NA oil objective and the Leica Application Suite X (LAS X).

[1] = In vitro solubility by nephelometry; format: physicochemical
Procedure: (§1) In vitro solubility in the following conditions A) HBSS/HEPES 10 mM/BSA 0.1% pH 6 B) HBSS/HEPES 10 mM/BSA 0.1% pH 7.4 C) TRIS/BSA 0.1% PBS (pH 7.4 and at indicated doses were measured by Nephelometry using the NEPHELOstar Galaxy apparatus (BMG Lab Technologies). In vitro stability in human, mouse and rat liver microsomes and permeability using a bidirectional permeability assay with CaCo-2 cells (pH 6.5/7.4) assays were performed with standard methodology and analyzed by LC-MS/MS. at SIMM-SERVIER joint Biopharmacy Laboratory. In silico ADME properties calculated by QikProp (Schrodinger, LLC) analysis and ADME predictions for CA39 (left) and CA77 (right).

KFERQ-Dendra mice = experiment: CMA activation in vivo in KFERQ-Dendra mice; design: species or system mouse; conditions: i.p. 30 mg/kg bw daily, three days
From the text: Animals: C57BL/6J mice wild-type (WT) and homozygous for the Pde6 mutation (rd10 mouse model of retinal degeneration) were obtained from The Jackson Laboratory. C57BL/6 KFERQ-Dendra mice were generated by back-crossing FVB KFERQ-Dendra mice with wild-type C57BL/6 mice for 8 generations. Both male and female animals were used in this study in equal distribution groups. However, results from both sexes were pooled, because of absence of significant differences in any of the parameters analyzed after statistical analysis with a mixed model of two-way ANOVA sex and treatment as independent variables and the corresponding measure as dependent variable. […]
CMA activity: Cells were transduced with lentivirus carrying the KFERQ-PS-Dendra reporter as before. […] Images were quantified using the manufacturer's software in a minimum of 1,200 cells in 9 independent fields per well. […] To avoid con-funding effects for drug-induced changes in cell volume or adherence to the plate that could bring a fraction of the cells per field outside of focus, we set a threshold to count only cells that have at least 1/10 of the average number of […] detected in the untreated wells for each cell type (3-4 puncta/cell in the case of NIH3T3 and N2a cells and 5 puncta/cell in primary human fibroblasts). […] Slices were mounted in DAPI-Fluoromount-G to highlight the cell nucleus and allow quantification of puncta per cell. […]

[2] = In vitro stability in liver microsomes; format: in vitro ADME; conditions: human liver microsomes
Procedure: as §1

CC(=O)Nc1ccc(C2=Nc3ccc(Cl)cc3OC2)cc1 [CA77]
predicted CMA activation score (CMA network): higher | CMA activation after washout (NIH3T3 cells): activation was still noticeable | CMA activating effect upon knock-down of NCoR1 (NIH3T3 cells): completely ablated the activating effect | CMA activation (NIH3T3 cells): activate CMA in a time and dose-dependent manner with higher potency than AR7 | solubility [1]: reasonable solubility | CMA activation in vivo (KFERQ-Dendra mice): activate CMA with comparable potency in vivo both in peripheral blood cells and in multiple organs | metabolic stability [2]: high to intermediate

Clc1ccc2c(c1)OCC(c1ccc(-c3ccccc3)cc1)=N2 [CA39]
predicted CMA activation score (CMA network): higher | CMA activation after washout (NIH3T3 cells): activation was still noticeable | CMA activating effect upon knock-down of NCoR1 (NIH3T3 cells): completely ablated the activating effect | CMA activation (NIH3T3 cells): activate CMA in a time and dose-dependent manner with higher potency than AR7 | solubility [1]: reasonable solubility | CMA activation in vivo (KFERQ-Dendra mice): activate CMA with comparable potency in vivo both in peripheral blood cells and in multiple organs | metabolic stability [2]: high to intermediate
